Source: patent publication US10760110B2, “Antibiotic testing and screening system” (priority 2017, dated 2020)
Converted amounts (≈) assume the structure as drawn. Read-outs that look alike come from different tables or passages of the source.

Key:
Details in all cases: Klebsiella pneumoniae
[1] = test system: K. pneumoniae NVT1001 and its ΔompK35/36 and/or ΔramR mutants; assay: Etest MIC, OmpK35/36 loss and AcrAB-TolC overexpression (ΔramR) strains (Table 6); format: cell-based, Klebsiella pneumoniae
How it was run: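 MICs were read by Etest strip following the manufacturer's instructions, and values falling between standard two-fold dilutions were rounded up to the next two-fold step. Ceftazidime and cefotaxime were also tested by CLSI broth microdilution and interpreted against CLSI 2017 breakpoints; cephalothin used CLSI 2015 and moxifloxacin EUCAST 2017.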

[2] = test system: K. pneumoniae NVT1001 ΔramRΔompK35/36 mutant and its revertants; assay: Etest MIC, ΔramRΔompK35/36 mutant and its revertants (Table 7); format: cell-based
[3] = test system: K. pneumoniae NVT1001 strains with carbapenemase plasmids; assay: Etest MIC of β-lactams, OmpK35/36 loss, ΔramR and/or carbapenemase (Table 9); format: cell-based, Klebsiella pneumoniae
How it was run: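 Etest MICs, with values between standard dilutions rounded up to the next two-fold step, were measured in K. pneumoniae NVT1001 carrying PCR-cloned resistance genes on pACYC177 or pACYC184 plasmids. Interpretation used CLSI 2017 breakpoints, CLSI 2015 for cephalothin and EUCAST 2017 for moxifloxacin. For the blaOXA-48 strain, ceftazidime and cefotaxime were additionally tested by CLSI broth microdilution.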

CO/N=C(\C(=O)N[C@@H]1C(=O)N2C(C(=O)[O-])=C(C[N+]3(C)CCCC3)CS[C@H]12)c1csc(N)n1 [Cefepime]
MIC ([1]; WT, NVT1001, read-out: MIC): 0.06 µg/mL (≈ 0.125 µM)
MIC ([1]; Δ35, ΔompK35 mutant): 0.125 µg/mL (≈ 0.26 µM)
MIC ([1]; Δ35/36, ΔompK35/36 mutant): 1 µg/mL (≈ 2.08 µM)
MIC ([1]; Δ36, ΔompK36 mutant): 0.125 µg/mL (≈ 0.26 µM)
MIC ([1]; ΔramR mutant): 0.5 µg/mL (≈ 1.04 µM)
MIC ([1]; ΔramRΔ35, ΔramRΔompK35 mutant): 0.5 µg/mL (≈ 1.04 µM)
MIC ([1]; ΔramRΔ35/36, ΔramRΔompK35/36 mutant): 2 µg/mL (≈ 4.16 µM)
MIC ([1]; ΔramRΔ36, ΔramRΔompK36 mutant): 4 µg/mL (≈ 8.32 µM)
MIC ([2]; ΔramRΔompK35/36::ompK35/36 revertant): 0.5 µg/mL
MIC ([2]; ΔramRΔompK35/36::ompK35 revertant): 2 µg/mL
MIC ([2]; ΔramRΔompK35/36::ompK36 revertant): 0.5 µg/mL
MIC ([2]; ΔramRΔompK35/36::ramR revertant): 1 µg/mL
MIC ([2]; ΔramRΔompK35/36::ramR::ompK35/36 revertant): 0.06 µg/mL
MIC ([2]; ΔramRΔompK35/36::ramR::ompK35 revertant): 0.125 µg/mL
MIC ([2]; ΔramRΔompK35/36::ramR::ompK36 revertant): 0.125 µg/mL
MIC ([2]; ΔramRΔompK35/36 mutant): 2 µg/mL
MIC ([3]; IMP-8 on pACYC177, WT (NVT1001), read-out: MIC): 16 µg/mL
MIC ([3]; IMP-8 on pACYC177, Δ35 (ΔompK35 mutant)): 32 µg/mL
MIC ([3]; IMP-8 on pACYC177, Δ35/36 (ΔompK35/36 mutant)): > 256 µg/mL
MIC ([3]; IMP-8 on pACYC177, Δ36 (ΔompK36 mutant)): 64 µg/mL
MIC ([3]; IMP-8 on pACYC177, ΔramR mutant): 32 µg/mL
MIC ([3]; IMP-8 on pACYC177, ΔramRΔ35 (ΔramRΔompK35 mutant)): 64 µg/mL
MIC ([3]; IMP-8 on pACYC177, ΔramRΔ35/36 (ΔramRΔompK35/36 mutant)): 128 µg/mL
MIC ([3]; IMP-8 on pACYC177, ΔramRΔ36 (ΔramRΔompK36 mutant)): 128 µg/mL
MIC ([3]; KPC-2 on pACYC177, WT (NVT1001), read-out: MIC): 64 µg/mL
MIC ([3]; KPC-2 on pACYC177, Δ35 (ΔompK35 mutant)): 64 µg/mL
MIC ([3]; KPC-2 on pACYC177, Δ35/36 (ΔompK35/36 mutant)): > 256 µg/mL
MIC ([3]; KPC-2 on pACYC177, Δ36 (ΔompK36 mutant)): 64 µg/mL
MIC ([3]; KPC-2 on pACYC177, ΔramR mutant): 64 µg/mL
MIC ([3]; KPC-2 on pACYC177, ΔramRΔ35 (ΔramRΔompK35 mutant)): 64 µg/mL
MIC ([3]; KPC-2 on pACYC177, ΔramRΔ35/36 (ΔramRΔompK35/36 mutant)): > 256 µg/mL
MIC ([3]; KPC-2 on pACYC177, ΔramRΔ36 (ΔramRΔompK36 mutant)): > 256 µg/mL
MIC ([3]; KPC-3 on pACYC177, WT (NVT1001), read-out: MIC): 128 µg/mL
MIC ([3]; KPC-3 on pACYC177, Δ35 (ΔompK35 mutant)): 128 µg/mL
MIC ([3]; KPC-3 on pACYC177, Δ35/36 (ΔompK35/36 mutant)): > 256 µg/mL
MIC ([3]; KPC-3 on pACYC177, Δ36 (ΔompK36 mutant)): 256 µg/mL
MIC ([3]; KPC-3 on pACYC177, ΔramR mutant): 128 µg/mL
MIC ([3]; KPC-3 on pACYC177, ΔramRΔ35 (ΔramRΔompK35 mutant)): 128 µg/mL
MIC ([3]; KPC-3 on pACYC177, ΔramRΔ35/36 (ΔramRΔompK35/36 mutant)): > 256 µg/mL
MIC ([3]; KPC-3 on pACYC177, ΔramRΔ36 (ΔramRΔompK36 mutant)): > 256 µg/mL
MIC ([3]; NDM-1 on pACYC177, WT (NVT1001), read-out: MIC): 32 µg/mL
MIC ([3]; NDM-1 on pACYC177, Δ35 (ΔompK35 mutant)): 128 µg/mL
MIC ([3]; NDM-1 on pACYC177, Δ35/36 (ΔompK35/36 mutant)): > 256 µg/mL
MIC ([3]; NDM-1 on pACYC177, Δ36 (ΔompK36 mutant)): > 256 µg/mL
MIC ([3]; NDM-1 on pACYC177, ΔramR mutant): > 256 µg/mL
MIC ([3]; NDM-1 on pACYC177, ΔramRΔ35 (ΔramRΔompK35 mutant)): 256 µg/mL
MIC ([3]; NDM-1 on pACYC177, ΔramRΔ35/36 (ΔramRΔompK35/36 mutant)): > 256 µg/mL
MIC ([3]; NDM-1 on pACYC177, ΔramRΔ36 (ΔramRΔompK36 mutant)): > 256 µg/mL
MIC ([3]; OXA-48 on pACYC177, WT (NVT1001), read-out: MIC): 0.5 µg/mL
MIC ([3]; OXA-48 on pACYC177, Δ35 (ΔompK35 mutant)): 1 µg/mL
MIC ([3]; OXA-48 on pACYC177, Δ35/36 (ΔompK35/36 mutant)): 8 µg/mL
MIC ([3]; OXA-48 on pACYC177, Δ36 (ΔompK36 mutant)): 1 µg/mL
MIC ([3]; OXA-48 on pACYC177, ΔramR mutant): 1 µg/mL
MIC ([3]; OXA-48 on pACYC177, ΔramRΔ35 (ΔramRΔompK35 mutant)): 1 µg/mL
MIC ([3]; OXA-48 on pACYC177, ΔramRΔ35/36 (ΔramRΔompK35/36 mutant)): 8 µg/mL
MIC ([3]; OXA-48 on pACYC177, ΔramRΔ36 (ΔramRΔompK36 mutant)): 8 µg/mL
MIC ([3]; VIM-1 on pACYC177, WT (NVT1001), read-out: MIC): 128 µg/mL
MIC ([3]; VIM-1 on pACYC177, Δ35 (ΔompK35 mutant)): 256 µg/mL
MIC ([3]; VIM-1 on pACYC177, Δ35/36 (ΔompK35/36 mutant)): > 256 µg/mL
MIC ([3]; VIM-1 on pACYC177, Δ36 (ΔompK36 mutant)): > 256 µg/mL
MIC ([3]; VIM-1 on pACYC177, ΔramR mutant): > 256 µg/mL
MIC ([3]; VIM-1 on pACYC177, ΔramRΔ35 (ΔramRΔompK35 mutant)): > 256 µg/mL
MIC ([3]; VIM-1 on pACYC177, ΔramRΔ35/36 (ΔramRΔompK35/36 mutant)): > 256 µg/mL
MIC ([3]; VIM-1 on pACYC177, ΔramRΔ36 (ΔramRΔompK36 mutant)): > 256 µg/mL
MIC ([3]; no supplemental plasmid, WT (NVT1001), read-out: MIC): 0.06 µg/mL
MIC ([3]; no supplemental plasmid, Δ35 (ΔompK35 mutant)): 0.125 µg/mL
MIC ([3]; no supplemental plasmid, Δ35/36 (ΔompK35/36 mutant)): 1 µg/mL
MIC ([3]; no supplemental plasmid, Δ36 (ΔompK36 mutant)): 0.125 µg/mL
MIC ([3]; no supplemental plasmid, ΔramR mutant): 0.5 µg/mL
MIC ([3]; no supplemental plasmid, ΔramRΔ35 (ΔramRΔompK35 mutant)): 0.5 µg/mL
MIC ([3]; no supplemental plasmid, ΔramRΔ35/36 (ΔramRΔompK35/36 mutant)): 2 µg/mL
MIC ([3]; no supplemental plasmid, ΔramRΔ36 (ΔramRΔompK36 mutant)): 4 µg/mL
